Data as given in the supplement of paper PMC10307832.

Compound: CCN1CCC(CC1)N2C=C(N=N2)CNC3=CC4=C(C(=CN=C4C(=C3)Cl)C#N)NC5=CC(=C(C=C5)F)Cl [KIN001-266] + CS(=O)(=O)N1CCN(Cc2cc3nc(-c4cccc5[nH]ncc45)nc(N4CCOCC4)c3s2)CC1 [Pictilisib] (partner 1 µM)
Experiment: relative viability (nuclei count vs DMSO), 5 days (fraction); higher = more cells survive
Method in brief: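 Relative viability divides the nuclei count in treated wells by that in vehicle wells. Lung cancer cell lines were seeded in 1536-well plates, dosed by pin tool the next day, and fixed and stained after 5 days in one step with final 0.05% Triton X-100, 1% formaldehyde and 1 ug/ml Hoechst. Dosing was a single drug or a fixed anchor-drug dose plus five library-drug doses (not always all listed) in √10 steps, and values are medians of duplicate plates imaged at 4×.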

Row | Cell Line | relative viability (first compound 0.08 µM) | relative viability (first compound 0.253 µM) | relative viability (first compound 0.8 µM) | relative viability (first compound 2.53 µM) | relative viability (first compound 8 µM)
1 | 201T | 0.768 | 0.746 | 0.662 | 0.64 | 0.721
2 | A549 | 0.584 | 0.527 | 0.519 | 0.584 | 0.393
3 | A-427 | 0.778 | 0.735 | 0.582 | 0.72 | 0.754
4 | ABC-1 | 0.864 | 0.927 | 0.926 | 0.65 | 0.547
5 | BEN | 0.632 | 0.615 | 0.589 | 0.54 | 0.632
6 | CAL-12T | 0.698 | 0.539 |  | 0.31 | 0.47
7 | COR-L23 | 0.88 | 0.749 | 0.697 | 0.649 | 0.478
8 | COR-L 105 | 0.422 | 0.44 | 0.352 | 0.452 | 0.43
9 | Calu-6 | 0.933 | 0.9 | 1.08 | 0.805 | 0.765
10 | ChaGo-K-1 | 1.04 | 0.852 |  | 0.844 | 0.703
11 | EBC-1 | 0.416 | 0.519 | 0.553 | 0.576 | 0.329
12 | EKVX | 0.386 | 0.417 | 0.425 | 0.405 | 0.4
13 | EMC-BAC-2 | 0.551 | 0.55 | 0.505 | 0.523 | 0.513
14 | EPLC-272H | 0.349 | 0.336 | 0.305 | 0.265 | 0.289
15 | H3255 | 0.523 | 0.518 | 0.49 | 0.516 | 0.341
16 | HARA | 0.515 | 0.466 | 0.507 | 0.444 | 0.291
17 | HCC-15 | 0.769 | 0.765 | 0.594 | 0.674 | 0.472
18 | HCC-44 | 0.657 | 1.76 | 0.593 | 0.636 | 0.57
19 | HCC-78 | 0.234 | 0.193 | 0.174 | 0.253 | 0.259
20 | HCC-366 | 0.132 | 0.114 | 0.107 | 0.154 | 0.156
21 | HCC-827 | 0.855 | 1.09 |  | 0.785 | 0.837
22 | HOP-62 | 0.592 | 0.813 | 0.728 | 0.372 | 0.506
23 | IA-LM | 0.336 | 0.364 | 0.274 | 0.348 | 0.317
24 | LC-2-ad | 0.582 | 0.336 | 0.466 | 0.317 | 0.543
25 | LCLC-97TM1 | 0.198 | 0.264 | 0.192 | 0.16 | 0.215
26 | LCLC-103H | 0.618 | 0.693 | 0.71 | 0.676 | 0.605

Row | Cell Line | relative viability (first compound 0.08 µM) | relative viability (first compound 0.253 µM) | relative viability (first compound 0.8 µM) | relative viability (first compound 2.53 µM) | relative viability (first compound 8 µM)
27 | LK-2 | 0.563 |  | 0.537 |  | 0.551
28 | LOU-NH91 | 0.542 | 0.533 | 0.443 | 0.469 | 0.505
29 | LU99A | 0.325 | 0.338 | 0.319 | 0.3 | 0.284
30 | LXF-289 | 0.791 | 0.786 | 0.755 | 0.767 | 0.799
31 | NCI-H23 | 0.494 | 0.557 | 0.458 | 0.351 | 0.469
32 | NCI-H322M | 0.593 | 0.713 | 0.451 | 0.456 | 0.484
33 | NCI-H358 | 0.382 | 0.355 | 0.343 | 0.3 | 0.316
34 | NCI-H441 | 0.559 | 0.381 | 0.481 | 0.459 | 0.415
35 | NCI-H460 | 0.5 | 0.339 | 0.308 | 0.355 | 0.302
36 | NCI-H520 | 0.311 | 0.242 | 0.289 | 0.237 | 0.286
37 | NCI-H596 | 0.407 | 0.401 | 0.385 | 0.4 | 0.38
38 | NCI-H647 | 0.461 | 0.405 | 0.491 | 0.282 | 0.414
39 | NCI-H650 | 0.924 | 0.899 | 0.917 | 0.921 | 0.908
40 | NCI-H661 | 0.43 | 0.412 | 0.433 | 0.363 | 0.568
41 | NCI-H727 | 0.389 | 0.351 | 0.327 | 0.264 | 0.304
42 | NCI-H838 | 0.521 | 0.423 | 0.515 | 0.304 | 0.238
43 | NCI-H1299 | 0.98 | 0.754 | 0.893 | 0.75 | 0.424
44 | NCI-H1355 | 0.481 | 0.408 | 0.399 | 0.303 | 0.378
45 | NCI-H1395 | 0.693 | 0.843 | 0.614 | 0.522 | 0.575
46 | NCI-H1437 | 0.357 | 0.464 | 0.413 | 0.359 | 0.177
47 | NCI-H1563 | 0.662 | 0.636 | 0.636 | 0.656 | 0.677
48 | NCI-H1650 | 0.618 | 0.621 | 0.554 | 0.524 | 0.479
49 | NCI-H1651 | 0.582 | 0.601 | 0.51 | 0.633 | 0.435
50 | NCI-H1666 | 0.608 | 0.523 | 0.49 | 0.367 | 0.347
51 | NCI-H1703 | 0.287 | 0.23 | 0.234 | 0.211 | 0.223
52 | NCI-H1734 | 0.521 | 0.452 | 0.454 | 0.418 | 0.43

Row | Cell Line | relative viability (first compound 0.08 µM) | relative viability (first compound 0.253 µM) | relative viability (first compound 0.8 µM) | relative viability (first compound 2.53 µM) | relative viability (first compound 8 µM)
53 | NCI-H1755 | 0.463 | 0.447 | 0.387 | 0.458 | 0.398
54 | NCI-H1792 | 0.312 | 0.282 | 0.325 | 0.305 | 0.265
55 | NCI-H1793 | 0.287 | 0.332 | 0.305 | 0.253 | 0.322
56 | NCI-H1915 | 1.03 | 0.949 | 0.947 | 1.05 | 0.781
57 | NCI-H1944 | 0.363 | 0.363 | 0.333 | 0.356 | 0.352
58 | NCI-H1975 | 0.316 | 0.308 | 0.304 | 0.294 | 0.326
59 | NCI-H1993 | 0.872 | 0.691 | 0.967 | 0.837 | 0.976
60 | NCI-H2009 | 0.852 | 0.935 | 1.02 | 0.669 | 0.48
61 | NCI-H2023 | 0.242 | 0.293 | 0.267 | 0.259 | 0.232
62 | NCI-H2085 | 0.524 | 0.452 | 0.421 | 0.462 | 0.458
63 | NCI-H2087 | 1.02 | 0.934 | 0.71 | 0.868 | 0.554
64 | NCI-H2126 | 0.53 | 0.538 | 0.449 | 0.434 | 0.5
65 | NCI-H2170 | 0.372 | 0.392 | 0.344 | 0.296 | 0.3
66 | NCI-H2228 | 0.343 | 0.312 | 0.425 | 0.276 | 0.432
67 | NCI-H2347 | 0.663 | 0.698 | 0.476 | 0.422 | 0.485
68 | NCI-H2405 | 0.384 | 0.412 | 0.449 | 0.288 | 0.347
69 | NCI-H3122 | 0.573 | 0.615 | 0.494 | 0.559 | 0.544
70 | PC-3 [JPC-3] | 0.797 | 0.8 | 0.575 | 0.693 | 0.527
71 | PC-14 | 0.702 | 0.571 | 0.772 | 0.565 | 0.0965
72 | RERF-LC-KJ | 0.537 | 0.554 | 0.516 | 0.635 | 0.315
73 | SK-LU-1 | 0.562 | 0.546 | 0.637 | 0.467 | 0.434
74 | SK-MES-1 | 0.304 | 0.351 | 0.37 | 0.408 | 0.316
75 | SW 1573 | 0.523 | 0.448 | 0.502 | 0.474 | 0.39
76 | UMC-11 | 0.808 | 0.841 | 0.827 | 0.5 | 0.677
